Patent publication EP0231622B1, “Inhibition of the 5-lipoxygenase pathway” (priority 1985, dated 1987)
Like-named read-outs stand apart in the source and are kept apart here. Marks after values point to notes of the source that are not given here. Each block holds one molecule with its values, some of them ahead of it.

Legend:
[1] = target: T1, 5-LO (Rattus norvegicus, UniProt P12527); experiment: di-HETE production by RBL-1 high speed supernatant; format: biochemical; conditions: Table 9A; di-HETE production by RBL-1 high speed supernatant; read-out: 5-LO IC50
T1 construct: The activities of these enzymes in extracts of RBL-1 cells were assayed; host or cells: RBL-1 cells, disrupted by nitrogen cavitation; 10,000 x g or 100,000 x g supernatant
T1 sequence (P12527 1-673): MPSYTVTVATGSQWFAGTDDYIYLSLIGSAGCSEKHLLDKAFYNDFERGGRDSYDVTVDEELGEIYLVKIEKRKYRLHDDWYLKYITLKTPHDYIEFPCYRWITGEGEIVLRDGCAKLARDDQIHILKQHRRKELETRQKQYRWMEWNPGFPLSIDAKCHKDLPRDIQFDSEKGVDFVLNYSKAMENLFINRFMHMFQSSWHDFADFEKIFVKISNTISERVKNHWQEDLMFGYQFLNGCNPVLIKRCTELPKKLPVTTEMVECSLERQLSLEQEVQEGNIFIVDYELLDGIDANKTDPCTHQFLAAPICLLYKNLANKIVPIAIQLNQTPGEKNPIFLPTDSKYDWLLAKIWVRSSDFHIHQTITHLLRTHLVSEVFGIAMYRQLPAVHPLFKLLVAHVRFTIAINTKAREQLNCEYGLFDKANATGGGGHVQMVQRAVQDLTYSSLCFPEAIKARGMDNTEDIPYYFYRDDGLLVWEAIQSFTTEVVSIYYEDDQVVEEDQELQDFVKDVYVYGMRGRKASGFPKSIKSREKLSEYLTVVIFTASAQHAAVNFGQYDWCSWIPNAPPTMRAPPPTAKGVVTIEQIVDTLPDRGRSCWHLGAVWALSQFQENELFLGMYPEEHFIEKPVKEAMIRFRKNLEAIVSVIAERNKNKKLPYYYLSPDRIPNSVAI
Procedure: (§1) For in vitro experiments, compounds were dissolved at appropriate concentrations in ethanol or DMSO (dimethylsulfoxide) (final concentration <1.0%) and then diluted to final concentrations using the buffers indicated in the text.
(§2) The activities of these enzymes in extracts of RBL-1 cells were assayed using the method of Jakschik and Lee, Nature, 287, 51-52 (1980). RBL-1 cells were obtained from the American Type Culture Collection (#CRL 1378) and were grown at 37°C (5% CO₂ in air) in spinner culture in MEM supplemented with 10% heat inactivated fetal calf serum. Harvested cells were washed with 50 mM sodium phosphate buffer, pH 7.0, containing 1 mM EDTA and 0.1% gelatin, resuspended in fresh buffer (5 x 10⁷ cells/ml) and disrupted by nitrogen cavitation using the Parr bomb at 750 psi for 10 min. The broken cell extract was then centrifuged at 10,000 x g for 20 minutes and the supernatant centrifuged at 100,000 x g for 60 minutes. Aliquots (0.25 mls) of the supernatant were preincubated with or without drugs for 10 min, after which 10 ul CaCl₂ (50 mM) was added and the reaction was initiated with 2.5 ul of 2.5 mM arachidonic acid-1-¹⁴C (final concentration was […]; specific activity 20,000 dpm/nmole). After incubation for 3 min at 37°C, the reaction was terminated by addition of 2 volumes (0.5 ml) ice cold acetone and the sample was allowed to deproteinize on ice for 10 min prior to centrifugation at 1,000 x g for 10 min. The deproteinized supernatant was adjusted to pH 3.5 with 2N formic acid and extracted with 2 volumes of ice cold ethyl acetate. The extracted samples were dried under argon, redissolved in ethyl acetate and applied to Whatman LK5D thin layer chromatography (TLC) plates which were developed using the A-9 solvent system [organic phase of ethyl acetate: 2,2,5-trimethylpentane:acetic acid: water (110:50:20:10)] described by Hamberg and Samuelsson, J. Biol. Chem., 241, 257-263 (1966). Arachidonic acid, 5-HETE, di-HETE and PGD₂ were quantified with a Berthold LB 2832 autoscanner.
(§3) The 5-lipoxygenase and LTA₄ synthetase activities were further studied under the following conditions. An additional centrifugation of the RBL-1 supernatant was run at 100,000 x g for 60 min, to remove the particulate cyclooxygenase activity. Sample incubation was done under conditions similar to those described above, i.e., 2 mM CaCl₂ and 25 uM arachidonic acid-1-¹⁴C, however, with an incubation time of 5 min at […]. Under these conditions, only the 5-lipoxygenase pathway metabolites were detectable. The 5-HETE and di-HETEs were formed at a linear rate, and […] amounts of the arachidonic acid-1-¹⁴C substrate were utilized.

[2] = target: T2, 5-Lipoxygenase (Rattus norvegicus, UniProt P12527); experiment: 5-HETE production by RBL-1 high speed supernatant; format: biochemical; conditions: Table 8A; RBL-1 high speed supernatant
T2 construct: The activities of these enzymes in extracts of RBL-1 cells were assayed; host or cells: RBL-1 cells, disrupted by nitrogen cavitation; 10,000 x g or 100,000 x g supernatant
T2 sequence (P12527 1-673): T1 sequence (P12527 1-673)
Procedure: as §1, §2, §3

[3] = test system: Arachidonic Acid-Induced Inflammation of the Mouse Ear; experiment: Arachidonic acid-induced mouse ear inflammation; format: in vivo, Balb/c mice; conditions: for % Inhibition of Ear Swelling: Table 7A, NS = not significant
Excerpt: (§4) In the following Examples where mice were used, they were male Balb/c mice (20-28 g), and where rats were used, they were male Lewis rats (180-210 g). All mice and rats were obtained from Charles River Breeding Laboratories, Kingston, N.Y. Within a single experiment, mice and rats were sex and age matched.
(§5) The compounds of Formula (IA) were used either as the free base or in the appropriate salt form. Levamisole was used as the hydrochloride salt. The compounds were homogenized in 0.5% tragacanth. Compounds were administered by gavage at the indicated dose in a final volume of 10 ml/kg. Nordihydroguaiaretic acid (NDGA) was solubilized in dimethylacetamide and diluted with olive oil for subcutaneous administration.
Arachidonic acid in acetone (2 mg/20 ul) was applied to the inner surface of the left ear. The thickness of both ears was then measured with a dial micrometer one hour after treatment, and the data were expressed as the change in thickness (10⁻³ cm) between treated and untreated ears.
Test compounds were given orally in 0.5% tragacanth at the times indicated in the text prior to the topical application of arachidonic acid.
Parenteral administration of compound was accomplished by subcutaneous injection of solution as indicated.

[4] = test system: Arachidonic Acid-Induced Cellular Infiltration; experiment: Arachidonic acid-induced air pouch inflammation; format: in vivo, Lewis rats; conditions: 100 mg/kg; 3 hours after arachidonic acid
Excerpt: as §4, §5
(§6) Rats were shaved on the dorsal flank, and then injected subcutaneously one day later with 20 ml of air to form a defined pouch, by the method of Sedgwick et al., J. Pathology, 141, 483-495 (1983). The air pouch was reinflated as necessary over the next 6 days. To assay anti-inflammatory activity, animals were treated orally with test compound or vehicle (10 ml/kg) one hour before injection of 2.0 ml of a 2.0% carrageenan suspension containing 200 units/ml penicillin and 100 »g/ml streptomycin into the air pouch. In other experiments, 5 ml of 0.1% arachidonic acid in 0.2 M bicarbonate buffer was injected two hours after drug treatment. Animals were sacrificed using CO₂ three hours after instillation of irritant. The exudate was then aspirated from the pouch and neutrophil count and differential cell count were measured.

[5] = test system: Polymorphonuclear Leukocytes; experiment: Mouse Carrageenan Peritonitis (PMN infiltration); format: in vivo, Balb/c mice; conditions: Table 1, p.o.
Excerpt: as §4, §5
Mice were pretreated with either the test compound or vehicle one hour before the intraperitoneal injection of a 1.0% carrageenan suspension in saline (0.2 ml/ mouse). Mice were sacrificed by cervical dislocation two hours after injection, and 3.0 ml of phosphate buffered saline, without Ca⁺⁺ or Mg⁺⁺, was injected into the peritoneum. Following massage, a 2.0 ml aliquot of the lavage fluid was removed, and the total cell count determined on a Coulter counter and differential cell count determined by microscopic examination of Giesma-stained slides.

[6] = test system: Arachidonic Acid-Induced Rat Paw Edema; experiment: Arachidonic acid-induced rat paw swelling; format: in vivo, Lewis rats; conditions: 100 mg/kg, read at 2 hours
Excerpt: as §4, §5

[7] = test system: Production of PGE₂ by Mouse Peritoneal Exudate Cells; experiment: PGE2 production by peritoneal macrophages; format: cell-based
Procedure: as §1
Mice were injected intraperitoneally with 350 »g Corynebacterium parvum and the peritoneal exudate cell population was harvested 12-14 days later by peritoneal lavage with cold phosphate-buffered saline, and resuspended in Eagles minimal essential medium supplemented with 5% fetal calf serum. […] Test compounds were added (100 ul) to bring the final volume to 1.0 ml. Lipopolysaccharide (5 »g/ml) was then added to stimulate PGE₂ synthesis. After incubation at 37°C for 2 hours, cell-free supernatants were harvested, placed in polypropylene tubes and frozen at -20°C until assayed for their PGE₂ content using a commercial radioimmunoassay kit. IC₅₀ is the concentration that inhibits 50% of control activity.

[8] = test system: Carrageenan-Induced Cellular Infiltration; experiment: Carrageenan-induced air pouch inflammation; format: in vivo, Lewis rats; conditions: 100 mg/kg; 3 hours after carrageenan
Excerpt: as §4, §5, §6

Compound: CN(C)c1ccc(-c2c(-c3ccc(F)cc3)nc3n2CCS3)cc1 [Compound 10, 5-(4-N,N-Dimethylaminophenyl)-6-(4-fluorophenyl)-2,3-dihydroimidazo[2,1-b]thiazole]
IC50 [1]: 1.5 µM
IC50 [2]: 5 µM
% Inhibition of Ear Swelling ([3]; 50 mg/kg s.c. or i.p.): 17* %

Compound: COc1ccc(-c2nc3n(c2-c2ccncc2)CCC3)cc1 [Compound 40, 2-(4-methoxyphenyl)-3-(4-pyridyl)-6,7-dihydro-[5H]-pyrrolo [1,2-a]imidazole]
IC50 [1]: 10 µM
IC50 [2]: 16 µM
% Inhibition of Ear Swelling ([3]; 50 mg/kg oral dosing (p.o.)): 83 (p.o.) %

Compound: [O-][S+]1CCn2c1nc(-c1ccncc1)c2-c1ccc(F)cc1 (stereo not shown) [Compound 42]
IC50 [1]: 60 µM
IC50 [2]: 101 µM
% Inhibition of Ear Swelling ([3]; 50 mg/kg s.c. or i.p.): 50*** %

Compound: CCOC(=O)N1C=CC(c2c(-c3ccc(F)cc3)nc3n2CCS3)C=C1 [Compound 48]
IC50 [1]: 7 µM
IC50 [2]: 9 µM
% Inhibition of Ear Swelling ([3]; 50 mg/kg s.c. or i.p.): 25*** %

More lines, main results first:

IC50 [1]: 53 µM
IC50 [2]: 73 µM
Compound: O=C(c1ccccc1)N1C=CC(c2c(-c3ccc(F)cc3)nc3n2CCS3)C=C1 [Compound 49]
% Inhibition of Ear Swelling ([3]; 50 mg/kg s.c. or i.p.): 15* %

IC50 ([7]; Macrophage, read-out: IC₅₀ production of PGE₂ by inflammatory macrophages): 28 µM
IC50 ([7]; Peritoneal macrophage, Table 10, LPS-stimulated, C. parvum-elicited peritoneal exudate cells, read-out: IC₅₀ (»M) production of PGE₂): 28 µM
Compound: O=C1CCN(c2ccccc2)N1 [Phenidone]
Cellular Infiltrate (Total x 10⁻⁶) MN [4]: 2.2 ± 1.5^d x 10⁻⁶
Cellular Infiltrate (Total x 10⁻⁶) PMN [4]: 1.3 ± 0.8^e x 10⁻⁶
Exudate Volume [4]: 2.8 ± 0.4 mL
ED50 ([3]; Mus musculus, po, 1 hour after 2 mg of arachidonic acid to the ear, read-out: ED₅₀ (inhibition of the edematous response of the ear)): 44 mg/kg
% Change ([3]; Table 7, 50 mg/kg, p.o.): -57^b %
Increase in Ear Thickness at 1 Hour (x 10⁻³ cm) ([3]; Table 7, 50 mg/kg, p.o., 15 minutes before arachidonic acid): 12.2 ± 1.6 x 10⁻³ cm
% Change ([5]; 50 mg/kg): -51^c %
PMN x 10⁻⁵/ml (mean ± S.D.) ([5]; 50 mg/kg): 5.30 ± 2.25 x 10⁻⁵/ml
PMN x 10⁻⁵/ml (mean ± S.D.) ([5]; 100 mg/kg, 1 h before i.p. carrageenan, read 2 h later): 6.97 ± 3.81 x 10⁻⁵/ml
% Change ([5]; 100 mg/kg, PMN vs vehicle): -36^d %
% Change ([5]; 200 mg/kg): -94^b %
PMN x 10⁻⁵/ml (mean ± S.D.) ([5]; 200 mg/kg): 0.66 ± 0.53 x 10⁻⁵/ml
Change in Paw Volume ([6]; one hour before arachidonic acid): 0.13 ± 0.05 mL
(% Inhibition) of change in paw volume [6]: 52%
Cellular Infiltrate (Total x 10⁻⁶) MN [8]: 3.5 ± 1.4 x 10⁻⁶
Cellular Infiltrate (Total x 10⁻⁶) PMN [8]: 1.7 ± 0.6^d x 10⁻⁶
Exudate Volume [8]: 1.5 ± 0.8 mL
